Laboratory results published in patent US8313949B2, “Detecting phospholipidosis and diagnosing lysosomal storage disorders” (Nextcea Inc., priority 2009, dated 2012).

Assays:
[1] = system: bronchoalveolar lavage (BAL) cells; details: patients with amiodarone pulmonary toxicity; Martin and Standing 1988; cited from earlier work
rats [2] = details: rat, in vivo
Experimental: The relationship between amiodarone, azithromycin, or citalopram exposure and the occurrence of drug-induced phospholipidosis was investigated in Fisher rats. Rats were treated with amiodarone (50 mg/kg/day), azithromycin (100 mg/kg/day), citalopram (90 mg/kg/day), or no drug for 4-weeks. Urine samples were collected from each animal and prepared for analysis using a liquid/liquid extraction method. The urine samples (200 μl urine per rat) were mixed with cold 3:1 chloroform/methanol (v/v) (400 μl) and vortexed before adding 0.1% formic acid (aq.) (100 μl). The samples were vortexed again, allowed to sit for 5 min, and centrifuged for 15 min. The bottom (organic) layer was carefully removed and concentrated to dryness. The samples were reconstituted to 30 μl with 0.05% formic acid in 2:1 acetonitrile/methanol (v/v).
The molecular profile of each urine sample was acquired using liquid chromatography coupled to mass spectrometry (LC/MS). Injections were made onto a 150×2.00 mm Synergi Hydro-RP column (Phenomenex, Torrance, Calif., USA) using an a Gilson 235 auto-injector (Gilson, Inc., Middletown, Wis., USA) and an Agilent 1100 binary pump (Agilent Technologies, Palo Alto, Calif., USA). Mobile phase A was 0.25% ammonium hydroxide, 0.05% formic acid in 88:12 methanol/water (v/v). Mobile phase B was 0.25% ammonium hydroxide, 0.05% formic acid in 80:20 methanol/hexane (v/v). […]

rats [3] = test: Urinary di-C22:6-BMP levels during 17-day azithromycin treatment (Example 4); type: in vivo, rat; details: azithromycin 150 mg/kg/day, all isoforms (FIG. 9)
Experimental: The methods described above were used to evaluate the tissue phospholipidosis induced by azithromycin (150 mg/kg/day) in rats over a 17-day period. Urine samples were collected from the rats on Days 11 and 17 and subjected to the assay. […] On Day 11, the mean level (n=5 rats per group) of di-C22:6-BMP in urine was increased by 2.6-fold in the rats treated with azithromycin compared to the controls. On Day 17, the mean level (n=5 rats per group) of di-C22:6-BMP in urine was increased approximately by 4.5-fold in the azithromycin treated rats compared to the control rats.

In the case of `CCCCc1oc2ccccc2c1C(=O)c1cc(I)c(OCCN(CC)CC)c(I)c1` [amiodarone], the “increase in total BMP in BAL cells compared to control subjects” value [1] is listed as “+64%”, the “increase in total PG in BAL cells compared to control subjects” value [1] is listed as “+1866%” and the “level of di-22:6-PG in urine” value (rats [2]) is listed as “increased”.
For `CC[C@H]1OC(=O)[C@H](C)[C@@H](O[C@H]2C[C@@](C)(OC)[C@@H](O)[C@H](C)O2)[C@H](C)[C@@H](O[C@@H]2O[C@H](C)C[C@H](N(C)C)[C@H]2O)[C@](C)(O)C[C@@H](C)CN(C)[C@H](C)[C@@H](O)[C@]1(C)O` [azithromycin], the “increase of mean level of di-C22:6-BMP in urine compared to controls, Day 11” value (rats [3]; Day 11, n=5 rats per group) was 2.6 fold and the “increase of mean level of di-C22:6-BMP in urine compared to controls, Day 17” value (rats [3]; Day 17, n=5 rats per group) was about 4.5 fold.
For `CCN(CC)CCCC(C)Nc1ccnc2cc(Cl)ccc12` (stereo not drawn) [chloroquine], the “level of di-22:6-PG in urine” value (rats [2]) was “not”.
